Patent US8188063B2, “Use of adenosine A2A modulators to treat spinal cord injury” (University of Virginia Patent Foundation, priority 2006, dated 2012)
Entries after “also recorded” stand apart in the source; their conditions may differ.

What was measured:
[1] = biological target: T1, recombinant mouse A2A receptors (Mus musculus, UniProt Q60613); test: Radioligand competition binding to recombinant mouse A2A receptor (HEK293 membranes); conditions: for Ki: high affinity conformational state, recombinant mouse A2A receptor, means ± SEM, at least six experiments, read-out: Binding affinity (Ki) A2AR; for A3/A2A: ratio of Ki at mouse A3R to Ki at mouse A2AR
T1 construct: expressed in transfected cells
T1 sequence (Q60613 whole entry): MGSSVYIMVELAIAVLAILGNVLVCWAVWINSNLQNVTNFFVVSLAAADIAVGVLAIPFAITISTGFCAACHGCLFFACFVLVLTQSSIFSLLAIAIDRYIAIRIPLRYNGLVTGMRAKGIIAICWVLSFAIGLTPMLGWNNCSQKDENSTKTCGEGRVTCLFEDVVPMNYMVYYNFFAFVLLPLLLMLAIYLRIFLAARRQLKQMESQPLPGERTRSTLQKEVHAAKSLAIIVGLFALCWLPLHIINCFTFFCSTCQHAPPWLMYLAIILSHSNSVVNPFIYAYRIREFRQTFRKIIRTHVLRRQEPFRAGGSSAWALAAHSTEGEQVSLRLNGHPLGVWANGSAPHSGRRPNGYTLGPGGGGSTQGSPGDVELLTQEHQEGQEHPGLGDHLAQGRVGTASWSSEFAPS
Procedure: Nonspecific binding was measured in the presence of 100 μM NECA. The incubation time was 120 min at room temperature. Membranes were filtered on Millipore MultiScreen 96-well filtration plates and washed three times with ice-cold buffer (10 mM Tris, 1 mM MgCl2, pH 7,4) using a Brandel 96-well plate washer. The data were fit to a four-parameter logistic equation.

[2] = biological target: T2, recombinant mouse A3 receptors (Mus musculus, UniProt Q61618); test: Radioligand competition binding to recombinant mouse A3 receptor (HEK293 membranes); conditions: high affinity conformational state, means ± SEM, at least six experiments, read-out: Binding affinity (Ki) A3R
T2 construct: expressed in transfected cells
T2 sequence (Q61618 1-319): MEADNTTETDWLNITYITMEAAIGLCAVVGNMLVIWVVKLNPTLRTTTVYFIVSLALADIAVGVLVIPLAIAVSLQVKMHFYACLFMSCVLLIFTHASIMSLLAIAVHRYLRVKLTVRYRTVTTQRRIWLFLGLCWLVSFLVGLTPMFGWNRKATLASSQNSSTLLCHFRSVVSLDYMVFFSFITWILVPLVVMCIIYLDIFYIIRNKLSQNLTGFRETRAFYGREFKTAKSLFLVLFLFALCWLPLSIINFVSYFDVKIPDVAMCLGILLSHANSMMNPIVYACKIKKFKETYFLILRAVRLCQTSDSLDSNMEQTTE
Procedure: Membranes from HEK293 cells stably expressing recombinant mouse A2ARs or A3Rs were used for competition binding assays with [^125I]N6-4-amino-3-iodobenzyladenosine for the A3AR or [^125I]2-[2-(4-amino-3-iodophenyl)ethylamino]adenosine for the A2AR as described previously (Lappas et al., 2005a). Radioligand binding experiments were performed with 25 μg of HEK293 cell membrane protein in a total volume of 0,1 ml of 10 MM HEPES with 1 mM EDTA (pH 7.4) supplemented with 2 Unit/ml adenosine deaminase and 5 mM MgCl2. Nonspecific binding was measured in the presence of 100 μM NECA. The incubation time was 120 min at room temperature. Membranes were filtered on Millipore MultiScreen 96-well filtration plates and washed three times with ice-cold buffer (10 mM Tris, 1 mM MgCl2, pH 7,4) using a Brandel 96-well plate washer. The data were fit to a four-parameter logistic equation. IC50 values were determined using GraphPad Prism, and Ki values calculated (Linden, 1982).
. It is important to note that unlike human receptors, in the mouse, the selectivity of all of these agonist compounds for the A2A over the A3 receptor is limited, and the administration of these compounds to mice is expected to produce some degree of A3 receptor activation. […]. Activation of the A3 receptor may exacerbate inflammation by enhancing the degranulation of rodent mast cells (Jin et al., 1997; Ramkumar et al., 1993, Reeves et al., 1997); although tissue protection by A3 receptor activation also has been noted (Rivo et al., 2004). […]

[3] = tested on: spinal cord white matter / myelin after compression injury; test: Spinal cord histology and myelin quantification after compression injury; assay type: in vivo, mouse
Procedure: A section of spine between T10 and L1 was removed under anesthesia. The tissue was placed in 4.0% paraformaldehyde in phosphate buffered saline, pH 7.4, and rocked for 4 hours. The disc body, lamina, pedicle, spinous and transverse processes surrounding the cord were carefully removed and the cord trimmed to center the injured area in a 10 mm segment. After incubation at 4° C. overnight, tissues were washed in Dulbecco's phosphate buffered saline (PBS, pH 7.4) twice for 10 minutes, and transferred to cassettes in 70% ethanol for paraffin embedding. Five μm sections were collected at 500 μm intervals using a Leica RM2030 Rotary Microtome. Sections derived from the center of the 2 mm compression zone were stained with hematoxylin & eosin (HE) and eriochrome cyanine (EC) as described below. Slides were examined using an Olympus BX51 light microscope and photographed using an Olympus DP70 digital camera (4080×3072 pixels) with DP70-BSW-V1.2 Capture & Archiving Software.
Hematoxylin & Eosin (HE) Staining. Sections were deparaffinized at 37° C. twice each for 5 minutes in xylene, 100% ethanol, and 95% ethanol, then once for 5 minutes in 70% ethanol and twice for 5 minutes in dH2O. Slides were stained in filtered hematoxylin for 60 seconds and washed in tap water for 3 minutes, stained in Eosin Y for 30 seconds and washed in tap water for 3 minutes. After the slide was dehydrated to xylene, a coverslip was applied.
Eriochrome Cyanine (EC) Staining. The protocol for staining myelin was obtained from the NINDS Spinal Cord Injury Training Course 2004 (The Ohio State University, Columbus, Ohio) and used with minor modifications. […]
Spinal Cord Cross Sectional Area and Myelin Quantification. Total cross-sectional area was measured to determine the extent of spinal cord atrophy, Cross-sectional area stained with EC was calculated by image analysis to evaluate damage of the sagittal myelinated tracts. […] The loss in white matter of each sample was calculated as % of total area stained in respective areas of control samples.

[4] = tested on: spinal cord compression injury in bone marrow chimera mice; test: Spinal cord compression injury in bone marrow chimera and A2AR KO mice, locomotor assessment; assay type: in vivo, mouse
Procedure: Female mice 7-9 weeks of age were irradiated twice with 600 Rads separated by 4 hours. Bone marrow donor mice 12 weeks of age were sacrificed by a lethal injection of sodium pentobarbital. Bone marrow cells were harvested from femurs and tibia by flushing with RPMI-1640 medium (Invitrogen Corporation, Grand Island, N.Y.) in the presence of 10% heat-inhibited fetal bovine serum (FBS). Connective tissue and debris were carefully removed by washing and centrifuging. Red blood cells were lysed by 1× ZAP-OGLOBIN® II lytic Reagent (Beckman Coulter, Miami, Fla.). Recipient mice were anesthetized intraperitoneally with a mixture of 100 mg/ml ketamine and 20 mg/ml xylazine in saline solution. An aliquot of approximately 2×10^6 cells in 200 μl RPMI-1640 with 10% FBS was injected intravenously through left or right jugular vein. BMT mice were used for experiments after 6 weeks. We have previously shown that this procedure results in efficient repopulation of BMDC cells to irradiated mice (Day et al., 2005).

[5] = biological target: recombinant human A2A receptors (Homo sapiens, UniProt P29274); conditions: recombinant human receptors (Rieger et al., 2001); cited from earlier work
recombinant human A2A receptors, sequence (P29274 whole entry): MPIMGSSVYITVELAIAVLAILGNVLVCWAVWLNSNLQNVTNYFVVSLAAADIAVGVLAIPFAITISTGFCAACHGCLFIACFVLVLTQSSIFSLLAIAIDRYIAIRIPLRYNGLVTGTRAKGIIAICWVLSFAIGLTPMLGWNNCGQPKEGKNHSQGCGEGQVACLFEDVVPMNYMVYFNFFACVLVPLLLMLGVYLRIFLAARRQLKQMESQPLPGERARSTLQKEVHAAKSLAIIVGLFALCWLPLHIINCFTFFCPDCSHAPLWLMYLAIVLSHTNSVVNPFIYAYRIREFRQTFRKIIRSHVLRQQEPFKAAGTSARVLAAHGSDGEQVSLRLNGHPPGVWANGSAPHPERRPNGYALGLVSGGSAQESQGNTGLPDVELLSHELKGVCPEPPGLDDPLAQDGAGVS

[6] = tested on: spinal cord compression injury, locomotor function; test: Spinal cord compression injury, locomotor assessment (mBBB); conditions: for locomotor function (mBBB score) after spinal cord compression: wild type mice, IP from 5 min before compression, twice daily 4 days, days 1-42, FIG. 2
Procedure: Briefly, mice were anesthetized with a mixture of ketamine and xylazine and placed on a heating pad in a stereotaxic apparatus. A laminectomy was performed at T12 and two adjustable forceps were applied to the vertebra between T11 to T13 to stabilize the spinal cord. Ischemic injury was produced by gently placing a 15 gram compression rod with 1 mm×2 mm rectangular surface onto the intact durra for 5 minutes. […] Injured mice were assessed on post-SCI days 1, 4, 7, 14, 28, and 42. Sham animals received a laminectomy without spinal cord compression. Following SCI, bladders were expressed twice daily until return of normal bladder function.
Animals that were able to walk and scored greater than 14 based on rat BBB scoring criteria were further evaluated based on their ability to traverse steel bars without slipping. Mice were placed on bars 500 mm in length and 3 mm in thickness with decreasing widths: 20 mm (score 16), 15 mm (score 17), 10 mm (score 18), 7 mm (score 19), and 5 mm (score 20). […] Scores obtained from left and right hind limbs were averaged.
Statistical Analysis: Statistical analyses were conducted using SAS version 9.1 (SAS Institute Inc, Cary, N.C.). A mixed model (SAS Proc Mixed) was applied to determine the effect of drug treatment over time. Both the experimental condition (mouse genotype and/or drug) and the day were set as categorical variables. An autoregressive correlation structure was assumed for repeated measures in the entire study.

[7] = tested on: contusive spinal cord injury, locomotor function; test: Contusive spinal cord injury, locomotor assessment (mouse BBB); conditions: FIG. 13; for protection from contusive injury in Rag1 KO mice compared to Rag1 KO vehicle: Rag1 KO mice lacking mature lymphocytes
Text: Female C57BL/6 wild type and Rag-1 KO mice lacking mature lymphocytes between 6-18 weeks of age were purchased from Jackson Laboratory (Bar Harbor, Me.). Adenosine 2A receptor gene deletion (A2AAR −/−, A2AAR knockout) mice were age-matched to their wild types with same genomic background (C57BL/6). Food and water were provided ad libitum before and after experiments. During the experiment period, animals were housed in a pathogen-free isolation barrier region with chip bedding.
Animals were subjected to comtusive spinal cord injury protocol. Briefly, mice were anesthetized with a mixture of ketamine and xylazine and placed on a heating pad in a stereotaxic apparatus. A laminectomy was performed at T12 and two adjustable forceps were applied to the vertebra between T11 to T13 to stabilize the spinal cord. Contusive spinal cord injury (SCI) was produced with an IH device (PSI, Lexington, Ky.) at a defined force from 30 to 100 Kdynes with a dwell time of 30 msec or 60 sec. […] Injured mice were assessed on days 1, 2, 3, 4, 7, 10, 14, 21, 28, 35, and 42 after injury. Sham animals (n=10) received a laminectomy without spinal cord compression. Following SCI, bladders were expressed twice daily until return of normal reflexive bladder function.
Statistical tests were performed using GraphPad™ Prism version 5 software (GraphPad Software, Inc., San Diego, Calif.). Differences in locomotor scores between groups was analyzed by two-way analysis of variance (ANOVA) employing Bonferroni post-tests for repeated measure comparisons. A P value <0.05 was considered to be significant.

COC(=O)N1CCC(CC#Cc2nc(N)c3ncn(C4OC(C(=O)NC5CC5)C(O)C4O)c3n2)CC1 (stereo not drawn) [ATL313, 4-{3-[6-amino-9-(5-cyclopropylcarbamoyl-3,4-dihydroxy-tetrahydro-furan-2-yl)-9H-purin-2-yl]-prop-2-ynyl}-piperidine-1-carboxylic acid methyl ester]
selectivity for the mouse A2A over the A3 receptor [1]: 12 fold
Ki [1]: 1.58 ± 0.48 nM
A3/A2A [1]: 12.2
Ki [2]: 19.3 ± 3.3 nM
morphological manifestations of long-term spinal cord injury (H&E, EC) ([3]; 6 nmol/kg, day 42, FIG. 3): substantially reversed
spared myelin (EC-stained area, normalized to sham/uninjured) ([3]; 6 nmol/kg, day 42 after compression, vehicle 61.0%±3.6%): 81.9±0.9%
average ratio of spinal cord white area (injured/sham) ([3]; day 42, N=3-4, P<0.05, vehicle 61.3±3.6): 81.9±0.9
protection of locomotor function in mice lacking A2ARs on BMDC cells ([4]; KO/WT chimera or global A2AR KO, FIGS. 5B, 6): not KO/WT chimera; also recorded: not protected; also recorded: completely absent
protection of locomotor function in WT/KO chimera ([4]; WT marrow into A2AR KO recipients, FIGS. 5C, 6, 7): greatest protection
protection of locomotor function in mice with A2ARs on BMDC cells ([4]; WT, WT/WT and WT/KO mice, FIGS. 5, 6): protects WT/WT; also recorded: protected
affinity and selectivity for human A2A receptor over other adenosine receptor subtypes [5]: highly selective
protection from spinal cord compression injury (mBBB) ([6]; 2 nmol/kg IP, FIG. 2A): no significant protection
protection from compression injury with delayed treatment ([6]; 3 nmol/kg IP, delay 0, 5 or 20 min after SCI, two-way ANOVA, FIG. 9): significant
locomotor protection by agonist combined with antagonist ([6]; 6 nmol/kg ATL313 with equimolar ZM241385, FIG. 2D): Early blockade; also recorded: completely blocked
protection when treatment starts just after compression (onset of reperfusion) ([6]; 6 nmol/kg IP 10-15 seconds after terminating compression, compared with start before compression, FIG. 8): reduces locomotor dysfunction; also recorded: equal protection; also recorded: same reduction in SCI
mBBB score ([6]; 6 nmol/kg, day 42 after compression, same animals as myelin analysis, vehicle 5.0±1.4, FIG. 4): 11.3±0.8
optimal dose to reduce SCI (mBBB locomotor score) ([6]; IP twice daily for 4 days during and following compression, FIG. 2A): 6 nmol/kg
reversal of protection by delay of administration ([6]; delay 20 minutes, FIG. 9 legend): partially
protection from spinal cord compression injury (mBBB) ([6]; dose increased from 6 to 20 nmol/kg IP, FIG. 2A): does not produce additional protection
locomotor function (mBBB score) after spinal cord compression ([6]; 6 nmol/kg): significant and sustained increase; also recorded: improved locomotor function at all time points
protection from contusive injury in Rag1 KO mice compared to Rag1 KO vehicle [7]: no evidence of additional protection

Nc1nc(NCCc2ccc(O)cc2)nc2nc(-c3ccco3)nn12 [ZM241385, 4-(2-[7-Amino-2-[2-furyl][1,2,4]triazolo[2,3-a][1,3,5]triazin-5-yl-amino]ethyl)phenol, reference compound]
Ki [2]: 16100 nM
reduction of compressive injury with delayed antagonist treatment ([6]; 6 nol/kg IP twice daily for 4 days after delay of 1, 3, 5 or 7 days, FIG. 10): Protection is maintained; also recorded: significant compared to vehicle for all delay periods
locomotor function (mBBB score) after spinal cord compression ([6]; 6 nmol/kg): improvement in locomotor function that was similar to the effect of the agonist
protection from contusive injury in Rag1 KO mice compared to Rag1 KO vehicle [7]: did not significantly improve protection
protection from contusive injury in Rag1 KO mice compared to vehicle ([7]; Rag1 KO mice, compared to vehicle controls, P=0.0015): significant protection

CCNC(=O)[C@H]1O[C@@H](n2cnc3c(N)nc(C#CCC4CCN(C(=O)OC)CC4)nc32)[C@H](O)[C@@H]1O [ATL202, 4-{3-[6-amino-9-(5-ethyl-carbamoyl-3,4-dihydroxy-tetrahydro-furan-2-yl)-9H-purin-2-yl]-prop-2-ynyl}-piperidine-1-carboxylic acid methyl ester]
Ki [1]: 1.5 ± 0.55 nM
Ki [2]: 3.7 ± 0.4 nM

CCNC(=O)C1OC(n2cnc3c(N)nc(C#CCC4CCN(C(=O)OCC(C)C)CC4)nc32)C(O)C1O (stereo not drawn) [ATL210, 4-{3-[6-amino-9-(5-ethylcarbamoyl-3,4-dihydroxy-tetrahydro-furan-2-yl)-9H-purin-2-yl]-prop-2-ynyl}-piperidine-1-carboxylic acid isobutyl ester]
Ki [1]: 1.04 ± 0.26 nM
A3/A2A [1]: 5.2
Ki [2]: 5.4 ± 0.7 nM

CCNC(=O)[C@H]1O[C@@H](n2cnc3c(N)nc(NCCc4ccc(CCC(=O)O)cc4)nc32)[C@H](O)[C@@H]1O [CGS21680, 2-[4-(2-carboxyethyl)phenethylamino]-5′-N-ethylcarboxamido-adenosine, reference compound]
Ki [2]: 160 ± 20 nM

CCNC(=O)C1OC(n2cnc3c(N)nc(C#CCC4CCC(C(=O)OC)CC4)nc32)C(O)C1O (stereo not drawn) [ATL146e, 4-{3-[6-Amino-9-(5-ethylcarbamoyl-3,4-dihydroxy-tetrahydro-furan-2-yl)-9H-purin-2-yl]-prop-2-ynyl}cyclo-hexanecarboxylic acid methyl ester]
Ki [2]: 3.3 ± 2 nM
